Among the data in PubChem BioAssay AID328 (DTP/NCI, 2004) are T/C values, retold here.

Where “and” joins values, the source holds several entries; their conditions need not be identical. Equal entries are not always repeated. Inconclusive results and toxic doses are left out.

In this experiment the test system is BDF1 mice, P388 leukemia ip, median survival T/C. Briefly: NCI In Vivo Anticancer Drug Screen. Data for tumor model P388 Leukemia (intraperitoneal) in B6D2F1 (BDF1) mice. As to conditions: endpoint: median survival time, higher = longer survival. The essentials:
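Each value expresses how treatment altered survival: treated-mouse outcome over vehicle-mouse outcome, both groups bearing the transplanted tumour.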

The mark [1] stands for this setting: dose: 25.0 mg/kg/injection, schedule: Q01DX009 (ip), vehicle: saline.
The mark [2] stands for this setting: dose: 50.0 mg/kg/injection, schedule: Q01DX009 (ip), vehicle: saline.
Where [3] appears, read: dose: 100.0 mg/kg/injection, schedule: Q01DX009 (ip), vehicle: saline.
Where [4] appears, read: dose: 100.0 mg/kg/injection, schedule: Q04DX003 (ip), vehicle: saline with Tween-80.
Where [5] appears, read: dose: 200.0 mg/kg/injection, schedule: Q04DX003 (ip), vehicle: saline with Tween-80.
The mark [6] stands for this setting: dose: 400.0 mg/kg/injection, schedule: Q04DX003 (ip), vehicle: saline with Tween-80.
The mark [7] stands for this setting: dose: 2.0 mg/kg/injection, schedule: Q01DX009 (ip), vehicle: saline.
Where [8] appears, read: dose: 25.0 mg/kg/injection, schedule: Q04DX003 (ip), vehicle: saline.
Setting [9] is: dose: 100.0 mg/kg/injection, schedule: Q04DX003 (ip), vehicle: saline.
[10] abbreviates: dose: 50.0 mg/kg/injection, schedule: Q04DX003 (ip), vehicle: saline with Tween-80.

On to `CCCCCCC(=O)O[C@H]1CC[C@H]2[C@@H]3CCC4=CC(=O)CC[C@]4(C)[C@H]3CC[C@]12C`, for which the T/C runs as follows: (dose: 25.0 mg/kg/injection, schedule: Q01DX009 (ip), vehicle: other) 120 % of control; (dose: 25.0 mg/kg/injection, schedule: Q04DX003 (ip), vehicle: other) 100 % of control; (dose: 50.0 mg/kg/injection, schedule: Q01DX009 (ip), vehicle: other) 100 % of control; (dose: 50.0 mg/kg/injection, schedule: Q04DX003 (ip), vehicle: other) 100 % of control; (dose: 66.0 mg/kg/injection, schedule: Q01DX009 (ip), vehicle: other) 100 % of control; (dose: 100.0 mg/kg/injection, schedule: Q01DX009 (ip), vehicle: other) 100 % of control. The T/C (dose: 100.0 mg/kg/injection, schedule: Q04DX003 (ip), vehicle: other) is 100 % of control and the T/C (dose: 150.0 mg/kg/injection, schedule: Q01DX009 (ip), vehicle: other) was 90 % of control.
`COc1cc(C(=O)OC2c3ccccc3CCC2N(C)C)cc(OC)c1OC` (configuration not stated): the T/C by setting is: under setting [1], 102 % of control; under setting [2], 103 % of control and 107 % of control; under setting [3], 102 % of control.
Consider `C/C(=C\C1C/C(=C/CCc2ccoc2)C(=O)O1)CCCc1ccoc1` (configuration not stated), for which the T/C is 107 % of control (dose: 5.0 mg/kg/injection, schedule: Q01DX009 (ip), vehicle: other) and 106 % of control (dose: 20.0 mg/kg/injection, schedule: Q01DX009 (ip), vehicle: other).
In the case of `C=C1CC(OC(C)=O)C2C(OC(=O)C2(C)OC(=O)/C(C)=C\C)C2C(C)=CC(=O)C12` (configuration not stated), the T/C (dose: 4.0 mg/kg/injection, schedule: Q01DX009 (ip), vehicle: Klucel (hydroxypropylcellulose) (HPC)) was 100 % of control and the T/C (dose: 8.0 mg/kg/injection, schedule: Q01DX009 (ip), vehicle: Klucel (hydroxypropylcellulose) (HPC)) was 109 % of control.
With `COc1ccc2nc(C)c(COC(C)=O)cc2c1`, the T/C is 93 % of control (dose: 25.0 mg/kg/injection, schedule: Q01DX009 (ip), vehicle: saline + alcohol); 111 % of control (dose: 50.0 mg/kg/injection, schedule: Q01DX009 (ip), vehicle: saline + alcohol); 109 % of control (dose: 50.0 mg/kg/injection, schedule: Q04DX003 (ip), vehicle: saline + alcohol); 101 % of control (dose: 100.0 mg/kg/injection, schedule: Q01DX009 (ip), vehicle: saline + alcohol); 109 % of control (dose: 100.0 mg/kg/injection, schedule: Q04DX003 (ip), vehicle: saline + alcohol); 90 % of control (dose: 200.0 mg/kg/injection, schedule: Q01DX009 (ip), vehicle: saline + alcohol). Also, the T/C (dose: 200.0 mg/kg/injection, schedule: Q04DX003 (ip), vehicle: saline + alcohol) is 97 % of control; the T/C (dose: 400.0 mg/kg/injection, schedule: Q01DX009 (ip), vehicle: saline + alcohol) was 109 % of control; the T/C (dose: 400.0 mg/kg/injection, schedule: Q04DX003 (ip), vehicle: saline + alcohol) was 110 % of control.
Take `CC(=O)OCC(=O)[C@@]1(O)CC[C@H]2[C@@H]3C[C@H](C)C4=CC(=O)C=C[C@]4(C)[C@H]3[C@@H](O)C[C@@]21C`: the T/C reads like this: under setting [4], 104 % of control; under setting [5], 104 % of control; under setting [6], 100 % of control.
`[NH-]C(Cc1ccc(O)cc1)C(=O)O.[NH-]C(Cc1ccc(O)cc1)C(=O)O.[Ni+2]` (configuration not stated): the T/C under setting [7] is 111 % of control; the T/C (dose: 4.0 mg/kg/injection, schedule: Q01DX009 (ip), vehicle: saline) is 107 % of control; the T/C (dose: 8.0 mg/kg/injection, schedule: Q01DX009 (ip), vehicle: saline) was 121 % of control; the T/C under setting [8] was 112 % of control; the T/C (dose: 50.0 mg/kg/injection, schedule: Q04DX003 (ip), vehicle: saline) was 114 % of control.
For `Nc1nc(N)c(N=Cc2ccccc2)c(=O)[nH]1`, the T/C runs as follows: (dose: 100.0 mg/kg/injection, schedule: Q01DX001 (ip), vehicle: saline with Tween-80) 108 % of control; (dose: 200.0 mg/kg/injection, schedule: Q01DX001 (ip), vehicle: saline with Tween-80) 88 % of control; (dose: 400.0 mg/kg/injection, schedule: Q01DX001 (ip), vehicle: saline with Tween-80) 97 % of control.
Regarding `COc1cc(/C=C2/CCCCC2=O)ccc1O`, the T/C by setting is: (dose: 100.0 mg/kg/injection, schedule: Q01DX001 (ip), vehicle: other) 104 % of control; (dose: 200.0 mg/kg/injection, schedule: Q01DX001 (ip), vehicle: other) 95 % of control; (dose: 400.0 mg/kg/injection, schedule: Q01DX001 (ip), vehicle: other) 104 % of control.
Consider `CCN(CC)C(=O)Cn1ccc(NC(C)=O)nc1=O`, for which the T/C is 104 % of control under setting [3]; 95 % of control under setting [9]; 86 % of control (dose: 200.0 mg/kg/injection, schedule: Q01DX009 (ip), vehicle: saline); 100 % of control (dose: 200.0 mg/kg/injection, schedule: Q04DX003 (ip), vehicle: saline); 100 % of control (dose: 400.0 mg/kg/injection, schedule: Q01DX009 (ip), vehicle: saline); 100 % of control (dose: 400.0 mg/kg/injection, schedule: Q04DX003 (ip), vehicle: saline).
Consider `O=[N+]([O-])c1ccc(N/N=C2/C3CCC(C3)C2C(O)(C(F)(F)F)C(F)(F)F)c([N+](=O)[O-])c1` (configuration not stated), for which the T/C under setting [4] was 90 % of control, the T/C under setting [5] was 90 % of control and the T/C under setting [6] was 95 % of control.
For the compound `C(COCC1CO1)OCC1CO1` (configuration not stated), the T/C under setting [1] was 154 % of control and 165 % of control; the T/C under setting [8] is 108 % of control; the T/C under setting [2] was 168 % of control and 185 % of control; the T/C under setting [10] was 160 % of control; the T/C under setting [3] is 209 % of control; the T/C under setting [4] was 165 % of control. Under setting [9], the T/C is 154 % of control.
`CCCCN(CCCC)CC(C)O` (configuration not stated): the T/C reads like this: (dose: 25.0 mg/kg/injection, schedule: Q04DX003 (ip), vehicle: saline with Tween-80) 100 % of control; under setting [10], 104 % of control; under setting [4], 100 % of control.
Consider `O=C1C(N2CCN(CCO)CC2)=C(N2CC2)C(=O)C(N2CCN(CCO)CC2)=C1N1CC1`, for which the T/C (dose: 0.25 mg/kg/injection, schedule: Q01DX009 (ip), vehicle: saline) was 241 % of control; the T/C (dose: 0.5 mg/kg/injection, schedule: Q01DX009 (ip), vehicle: saline) is 241 % of control and 249 % of control; the T/C (dose: 1.0 mg/kg/injection, schedule: Q01DX009 (ip), vehicle: saline) is 243 % of control; the T/C under setting [7] is 116 % of control.
In the case of `CC(=O)c1cc(C)ccc1Sc1ccc(C)cc1`, the T/C is 104 % of control (dose: 50.0 mg/kg/injection, schedule: Q01DX009 (ip), vehicle: saline with Tween-80); 101 % of control (dose: 100.0 mg/kg/injection, schedule: Q01DX009 (ip), vehicle: saline with Tween-80); 95 % of control (dose: 200.0 mg/kg/injection, schedule: Q01DX009 (ip), vehicle: saline with Tween-80).
With `Cc1c2c(ccc3ccccc32)c[n+]2ccccc12`, the T/C is 105 % of control (dose: 6.25 mg/kg/injection, schedule: Q01DX009 (ip), vehicle: saline); 122 % of control (dose: 12.5 mg/kg/injection, schedule: Q01DX009 (ip), vehicle: saline); 118 % of control (dose: 12.5 mg/kg/injection, schedule: Q04DX003 (ip), vehicle: saline); 122 % of control under setting [8].
For `CCOC(=O)C1CSCC1=O` (configuration not stated), the T/C was 113 % of control (dose: 12.5 mg/kg/injection, schedule: Q01DX009 (ip), vehicle: water); 113 % of control (dose: 25.0 mg/kg/injection, schedule: Q01DX009 (ip), vehicle: water); 98 % of control (dose: 50.0 mg/kg/injection, schedule: Q01DX009 (ip), vehicle: water); 104 % of control (dose: 100.0 mg/kg/injection, schedule: Q01DX009 (ip), vehicle: water); 95 % of control (dose: 200.0 mg/kg/injection, schedule: Q01DX009 (ip), vehicle: water); 101 % of control (dose: 200.0 mg/kg/injection, schedule: Q04DX003 (ip), vehicle: water). For the same compound, the T/C runs as follows: (dose: 300.0 mg/kg/injection, schedule: Q04DX003 (ip), vehicle: water) 117 % of control; (dose: 400.0 mg/kg/injection, schedule: Q01DX009 (ip), vehicle: water) 101 % of control; (dose: 400.0 mg/kg/injection, schedule: Q04DX003 (ip), vehicle: water) 106 % of control.
